{"source": "patent US12336980B2", "about": "“Dosing regimen for a selective S1P1 receptor agonist” (Vanda Pharmaceuticals Inc., priority 2014, dated 2025)", "assay_type_in_all_cases": "in vivo, human", "key": {"healthy subjects [1]": {"tested_on": "healthy subjects", "experiment": "Holter ECG, mean hourly heart rate and AUEC, two-way cross-over up-titration study", "conditions": "for mean hourly HR change from baseline at nadir (Holter): p <0.05 vs. baseline; for mean hourly HR change from baseline (Holter): Day 3, 2 h post-dose", "experimental": "In a single-center, double-blind, placebo-controlled, randomized, two-way cross-over study, 32 healthy subjects (15 males) received placebo on Day 1 followed by multiple-dose administration of either ponesimod or placebo (ratio 3:1). Ponesimod was administered alternately using regimen A (incremental dose increase from 2 to 20 mg) or B (10 mg for 7 days followed by a single-dose administration of 20 mg). Cardiodynamic (Holter and 12-lead ECG), pharmacokinetic, pharmacodynamic (total lymphocyte count), and safety variables were assessed.\n(§1) The enrolled subjects came to the study center for each treatment period on Day −2 and participated in a run-in (all study procedures performed without study drug administration) on Day −1. On Day 1, subjects were randomized to one of the two possible sequences of the two up-titration regimens A and B (ratio 1:1). On Day 1, all subjects received placebo; the first study drug administration (or its matching placebo) occurred on Day 2. Regimen A consisted of the novel up-titration regimen: ponesimod was administered once daily (o.d.) orally at a dose of 2 mg on Day 2 and Day 3, 3 mg on Day 4 and Day 5, 4 mg on Day 6 and Day 7, 5 mg on Day 8, 6 mg on Day 9, 7 mg on Day 10, 8 mg on Day 11, 9 mg on Day 12, 10 mg on Day 13 and Day 14, and 20 mg on Day 15. The reference regimen (regimen B) was based on previous studies (Olsson T. et al., Oral ponesimod in relapsing-remitting multiple sclerosis: a randomised phase II trial. J Neurol Neurosurg Psychiatry. 2014; 85 (11): 1198-1208; and Vaclavkova A. et al., Oral ponesimod in patients with chronic plaque psoriasis: a randomised, double-blind, placebo-controlled phase 2 trial. Lancet. 2014; 384 (9959): 2036-2045) and consisted of an o.d. oral administration of ponesimod at a dose of 10 mg for 7 days (i.e., from Day 2 to Day 8) and 20 mg on Day 9. From Day 10 to Day 15 subjects received o.d. the matching placebo. In the placebo group (1:1 sex ratio), subjects received placebo from Day 1 to Day 15. All treatments were administered at the same time in the morning (fasted condition) with approximately 240 mL of water.\nCardiodynamic endpoints were assessed using Holter and 12-lead ECG. The 24-h Holter recordings were performed on Day -1, Day 1, Day 2, Day 9, Day 13, and Day 15. The 12-h Holter recordings were performed on the other days. In addition, Holter data were used to estimate the area under the effect curve (AUEC) for HR. 12-lead ECGs were performed from Day −1 to Day 16 at pre-dose and 1, 2, 3, 4, 5, 6, 8, 10, and 12 h after study drug administration. An additional 12-lead ECG recording was performed at EOFP and EOS. Heart rate nadir, Emax (maximum decrease of mean hourly HR from baseline, which was defined as the mean of the time-matched assessments measured on Day −1 and Day 1 pre-dose), and occurrence of values of interest (HR <45 bpm, HR decrease from baseline >20 bpm, and PR interval increase from baseline >20 ms), and AV-blocks (i.e., PR interval >210 ms) were obtained with 12-lead ECG.\nCardiodynamic and pharmacodynamic data are expressed as mean±SD. Repeated measure one-way ANOVAs followed by Tukey's multiple-comparisons tests were used to perform inter-group (i.e., placebo vs. regimen A vs. regimen B) comparisons. Student's t-tests were employed to perform intra-group (baseline vs. treatment) comparisons. Differences were considered to be statistically significant at p <0.05. SAS® version 9.2 (SAS Institute, Cary, NC, USA) was used for the statistical analysis and descriptive statistics of clinical data."}, "heart rate in humans": {"tested_on": "heart rate in humans", "experiment": "Heart rate reduction in humans after administration (background finding)", "conditions": "transient heart rate reduction"}, "healthy subjects [2]": {"tested_on": "healthy subjects", "experiment": "Vital signs, supine blood pressure", "conditions": "first administration, mean±SD", "excerpt": "as §1\nSafety and tolerability were evaluated by monitoring adverse events (AEs), vital signs measurements (supine blood pressure), pulmonary function tests (PFTs; i.e., FEV1 and FVC), clinical laboratory, physical, and neurological examinations. Recording of blood pressure was performed at the same time-points as 12-lead ECG."}}}
{"smiles": "CCC/N=C1\\S/C(=C\\c2ccc(OC[C@H](O)CO)c(Cl)c2)C(=O)N1c1ccccc1C", "note": "[ponesimod, (R)-5-[3-chloro-4-(2,3-dihydroxy-propoxy)-benz[Z]ylidene]-2-([Z]-propylimino)-3-o-tolyl-thiazolidin-4-one]", "values": [{"measurement": "time for mean hourly HR to return to pre-dose values after administration", "setting": "healthy subjects [1]; Day 2 first dose, regimens A and B", "value": "4 to 5", "unit": "h"}, {"measurement": "decrease in mean hourly HR following administration", "setting": "healthy subjects [1]; Day 4 to last day of treatment", "value": "no further significant decreases"}, {"measurement": "mean hourly HR change from baseline at nadir (Holter)", "setting": "healthy subjects [1]; regimen A (2 mg), Day 2 first dose, 2 h post-dose, mean±SD", "value": "−6±7.4", "unit": "bpm"}, {"measurement": "mean hourly HR change from baseline (Holter)", "setting": "healthy subjects [1]; regimen A (2 mg), mean±SD", "value": "−8±5.3", "unit": "bpm"}, {"measurement": "mean AUEC0-12 for HR", "setting": "healthy subjects [1]; regimen A, Day 2 first administration, mean±SD", "value": "−70.7±38.7", "unit": "bpm·h"}, {"measurement": "time of nadir of mean hourly HR after administration", "setting": "healthy subjects [1]; regimen A, Day 2 first dose", "value": 2, "unit": "h"}, {"measurement": "mean AUEC0-12 for HR", "setting": "healthy subjects [1]; regimen A, Day 3, mean±SD", "value": "−105.5±49.0", "unit": "bpm·h"}, {"measurement": "mean hourly HR change from baseline at nadir (Holter)", "setting": "healthy subjects [1]; regimen B (10 mg), Day 2 first dose, 3 h post-dose, mean±SD", "value": "−12±6.9", "unit": "bpm"}, {"measurement": "mean hourly HR change from baseline (Holter)", "setting": "healthy subjects [1]; regimen B (10 mg), mean±SD", "value": "−9±5.7", "unit": "bpm"}, {"measurement": "mean AUEC0-12 for HR", "setting": "healthy subjects [1]; regimen B (ponesimod 10 mg), Day 3, mean±SD", "value": "−146.6±59.8", "unit": "bpm·h"}, {"measurement": "mean AUEC0-12 for HR", "setting": "healthy subjects [1]; regimen B, Day 2 first administration, mean±SD", "value": "−128.6±63.3", "unit": "bpmh"}, {"measurement": "time of nadir of mean hourly HR after administration", "setting": "healthy subjects [1]; regimen B, Day 2 first dose", "value": 3, "unit": "h"}, {"measurement": "time of maximal heart rate reducing effects after administration", "setting": "heart rate in humans", "value": "1 to 3", "unit": "h"}, {"measurement": "decrease in DBP", "setting": "healthy subjects [2]; regimen A", "value": "−7±5.3", "unit": "mmHg"}, {"measurement": "decrease in SBP", "setting": "healthy subjects [2]; regimen A", "value": "−4±4.4", "unit": "mmHg"}, {"measurement": "decrease in DBP", "setting": "healthy subjects [2]; regimen B", "value": "−10±4.4", "unit": "mmHg"}, {"measurement": "decrease in SBP", "setting": "healthy subjects [2]; regimen B", "value": "−5±7.7", "unit": "mmHg"}]}
